Legend:
[1] = target: T1, plain muscle Ca2+ dependency K+ channel (Bos taurus, UniProt Q28204); experiment: Single channel current measurement of plain muscle Ca2+ dependency K+ channel in artificial lipid bilayer membrane; format: biochemical, bovine; conditions: 100 mM KCl, 10 mM Hepes (pH 7.4)
T1 construct: inserting a K^+ channel on the vesicle membrane into the artificial lipid bilayer membrane 2; from tissue; host or cells: bovine tracheal smooth (plain) muscle membrane vesicles
Source text: (§1) In the present Example, a current measuring device according to the present invention (FIG. 5) was used. […] In the bottom 9, a small hole 4 whose diameter was 0.15 mm was provided. A square glass plate whose thickness was 0.17 mm and each side was 18 mm was used as the bottom plate 6. Further, an agarose gel layer whose thickness was 100 nm was formed on the bottom plate 6 as the support layer 5 so as to be positioned in a face contacting the upper solution chamber 3. […] In measuring a current, a patch-clamp amplifier (CEZ-2400 produced by Nihon Kohden Corporation) was used, and the measured current was recorded on a DAT tape by using a DAT recorder. […]
Thereafter, lipid solution obtained by dissolving phosphatidylcholine (product of Sigma) in decane so that its concentration was 20 mg/mL was applied to the small hole 4 provided in the bottom 9 of the upper solution chamber 3. […] By using the thus produced current measuring device, a current was measured with time.
Subsequently, only the CaCl2 concentration of the aqueous solution with which the upper solution chamber 3 and the lower solution chamber 8 were filled was changed into 1 mM. Under this condition, a current measuring device was produced in the same manner, and a current was measured.

[2] = target: T2, ryanodine receptor channel (Ca- channel) (Sus scrofa, UniProt A0A5G2R1W3); experiment: Single channel current measurement and fluorescence observation of ryanodine receptor channel in artificial lipid bilayer membrane; format: biochemical, swine; conditions: 1 to 10 nM Cy5-labeled ryanodine added from the upside of the membrane; 500 mM Na-methanesulfonic acid, 40 mM Hepes (pH 7.4), 0.01-0.1 μM Ca2+
T2 construct: a cell membrane vesicle sampled from a swine cardiac muscle; from tissue; host or cells: swine cardiac muscle membrane vesicles
Source text: as §1
Thereafter, solution obtained by dissolving phosphatidylcholine in decane so that its concentration was 20 mg/ml was applied to the small hole 4 provided in the bottom 9 of the upper solution chamber 3. […] At this time, the ryanodine receptor channel on the vesicle membrane was fluorescence-labeled with fluorescent dye Cy5 (product of Amensham Pharmacia) in advance, and then the cell membrane vesicle was fused with the artificial lipid bilayer membrane 2. The fluorescence labeling of the ryanodine receptor channel was carried out as follows: a corresponding specific monoclonal antibody was labeled with Cy5, and the thus labeled antibody was coupled with the ryanodine receptor channel. […]

T1 sequence (Q28204 whole entry): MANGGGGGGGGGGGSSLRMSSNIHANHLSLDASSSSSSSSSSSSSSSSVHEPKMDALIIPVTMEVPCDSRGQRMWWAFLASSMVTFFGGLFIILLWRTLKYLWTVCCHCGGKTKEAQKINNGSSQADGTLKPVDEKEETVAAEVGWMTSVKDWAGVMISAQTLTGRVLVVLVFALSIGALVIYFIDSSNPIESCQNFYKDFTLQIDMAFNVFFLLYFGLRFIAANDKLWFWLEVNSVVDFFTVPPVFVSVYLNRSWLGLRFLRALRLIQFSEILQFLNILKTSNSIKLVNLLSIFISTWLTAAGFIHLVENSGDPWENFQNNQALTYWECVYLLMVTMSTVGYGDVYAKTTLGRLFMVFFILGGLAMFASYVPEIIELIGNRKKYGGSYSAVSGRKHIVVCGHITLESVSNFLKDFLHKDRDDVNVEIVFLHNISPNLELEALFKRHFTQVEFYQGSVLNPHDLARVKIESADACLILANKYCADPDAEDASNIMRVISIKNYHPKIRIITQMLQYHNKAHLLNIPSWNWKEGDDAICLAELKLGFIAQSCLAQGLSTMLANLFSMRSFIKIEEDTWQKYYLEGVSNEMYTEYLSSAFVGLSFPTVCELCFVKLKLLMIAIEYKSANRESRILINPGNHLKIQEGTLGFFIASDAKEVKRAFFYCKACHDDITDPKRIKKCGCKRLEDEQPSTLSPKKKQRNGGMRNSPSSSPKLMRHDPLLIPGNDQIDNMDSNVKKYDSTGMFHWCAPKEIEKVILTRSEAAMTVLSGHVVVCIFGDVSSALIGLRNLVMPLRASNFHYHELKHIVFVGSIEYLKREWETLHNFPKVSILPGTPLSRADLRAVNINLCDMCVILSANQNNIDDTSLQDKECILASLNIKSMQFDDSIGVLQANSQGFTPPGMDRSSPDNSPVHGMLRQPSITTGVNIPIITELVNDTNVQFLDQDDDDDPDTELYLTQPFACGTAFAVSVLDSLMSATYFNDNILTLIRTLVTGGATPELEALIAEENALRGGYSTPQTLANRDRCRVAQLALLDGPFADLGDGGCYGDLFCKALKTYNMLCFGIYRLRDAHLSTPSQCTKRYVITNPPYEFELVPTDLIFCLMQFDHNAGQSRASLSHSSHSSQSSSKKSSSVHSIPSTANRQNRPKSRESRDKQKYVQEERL
T1 sequence (Q28067 whole entry partner): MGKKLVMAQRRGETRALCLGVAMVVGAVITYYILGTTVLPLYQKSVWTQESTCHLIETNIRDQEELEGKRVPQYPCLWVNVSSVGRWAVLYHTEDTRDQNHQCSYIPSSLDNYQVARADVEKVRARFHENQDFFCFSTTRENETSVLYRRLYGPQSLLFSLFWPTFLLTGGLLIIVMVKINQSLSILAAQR

Row | Compound | state of the ion channel (current trace) ([1]; CaCl2 1 mM) | state of the ion channel (current trace) ([1]; CaCl2 10^-9 M) | channel activity (current trace after addition) [2]
1 | [Ca+2].[Cl-].[Cl-] [CaCl2] | more likely to open | closed | 
2 | ryanodine |  |  | activation of the ryanodine receptor channel occurs
